Laboratory results: patent publication US20070191317A1, “VITAMIN D ANALOG - RAK, METHODS AND USES THEREOF” (WISCONSIN ALUMNI RESEARCH FOUNDATION, priority 2006, published 2007)
“Also recorded” adds a separate entry of the source.

How the values were obtained:
[1] = biological target: T1, vitamin D receptors (Homo sapiens, UniProt P11473); settings: cited from earlier work
T1 sequence (P11473 1-427): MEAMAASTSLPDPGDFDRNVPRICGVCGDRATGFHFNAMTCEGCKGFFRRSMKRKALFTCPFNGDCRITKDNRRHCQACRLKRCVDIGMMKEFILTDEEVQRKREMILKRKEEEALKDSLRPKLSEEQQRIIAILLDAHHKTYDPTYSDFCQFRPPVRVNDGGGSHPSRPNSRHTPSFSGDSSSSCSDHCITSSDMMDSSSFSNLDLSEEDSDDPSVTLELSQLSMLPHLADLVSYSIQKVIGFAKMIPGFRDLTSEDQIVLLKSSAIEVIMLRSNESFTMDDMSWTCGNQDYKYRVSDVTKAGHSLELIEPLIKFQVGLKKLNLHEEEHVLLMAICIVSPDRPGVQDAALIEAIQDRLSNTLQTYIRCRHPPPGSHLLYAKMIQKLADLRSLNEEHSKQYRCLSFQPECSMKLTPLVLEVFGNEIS

[2] = cited from earlier work; for calcemic activity: as compared to 1α,25-dihydroxyvitamin D3
[3] = biological target: T2, full-length recombinant rat vitamin D receptor (Rattus norvegicus, UniProt P13053); assay: Vitamin D receptor competitive binding with [3H]-1,25-(OH)2-D3; settings: relative to 1α,25-dihydroxyvitamin D3; FIG. 1
T2 construct: Full-length recombinant rat receptor was expressed in E. coli; histidine tag (C); made in house; host or cells: E. coli BL21(DE3) Codon Plus RIL
T2 sequence (P13053 1-423): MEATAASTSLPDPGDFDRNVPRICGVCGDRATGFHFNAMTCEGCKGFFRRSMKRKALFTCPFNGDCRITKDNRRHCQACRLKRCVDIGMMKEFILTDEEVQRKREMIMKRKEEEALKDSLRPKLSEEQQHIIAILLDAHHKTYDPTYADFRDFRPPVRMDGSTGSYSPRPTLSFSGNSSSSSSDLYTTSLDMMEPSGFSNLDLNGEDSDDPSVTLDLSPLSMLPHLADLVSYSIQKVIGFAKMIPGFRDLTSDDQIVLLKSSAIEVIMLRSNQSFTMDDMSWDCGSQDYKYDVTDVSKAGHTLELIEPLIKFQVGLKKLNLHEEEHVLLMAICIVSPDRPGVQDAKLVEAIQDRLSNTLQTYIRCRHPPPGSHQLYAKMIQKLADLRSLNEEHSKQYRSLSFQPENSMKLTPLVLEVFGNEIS
Method: The first system was a nickel affinity resin that utilizes the C-terminal histidine tag on this protein. The protein that was eluted from this resin was further purified using ion exchange chromatography (S-Sepharose Fast Flow). Aliquots of the purified protein were quick frozen in liquid nitrogen and stored at −80° C. until use. For use in binding assays, the protein was diluted in TEDK50 (50 mM Tris, 1.5 mM EDTA, pH7.4, 5 mM DTT, 150 mM KCl) with 0.1% Chaps detergent. The receptor protein and ligand concentration was optimized such that no more than 20% of the added radiolabeled ligand was bound to the receptor.
The following day, 100 mcl of hydroxylapatite slurry (50%) was added to each tube and mixed at 10-minute intervals for 30 minutes. The hydroxylapaptite was collected by centrifugation and then washed three times with Tris-EDTA buffer (50 mM Tris, 1.5 mM EDTA, pH 7.4) containing 0.5% Titron X-100. After the final wash, the pellets were transferred to scintillation vials containing 4 ml of Biosafe II scintillation cocktail, mixed and placed in a scintillation counter. Total binding was determined from the tubes containing only radiolabeled ligand.

[4] = test system: HL-60 cells; assay: HL-60 differentiation (nitro blue tetrazolium reduction); type: cell-based, human; settings: relative to 1α,25-dihydroxyvitamin D3; FIG. 4
Method: FIG. 4 is a graph comparing the percent HL-60 cell differentiation as a function of the concentration of RAK with that of 1,25(OH)2D3.
The study drugs were dissolved in ethanol and the concentrations determined using UV spectrophotometry. Serial dilutions were prepared so that a range of drug concentrations could be tested without changing the final concentration of ethanol (<0.2%) present in the cell cultures.
Human promyelocytic leukemia (HL60) cells were grown in RPMI-1640 medium containing 10% fetal bovine serum. The cells were incubated at 37° C. in the presence of 5% CO2.
HL60 cells were plated at 1.2×10^5 cells/ml. Eighteen hours after plating, cells in duplicate were treated with drug. Four days later, the cells were harvested and a nitro blue tetrazolium reduction assay was performed (Collins et al., 1979; J. Exp. Med. 149:969-974). The percentage of differentiated cells was determined by counting a total of 200 cells and recording the number that contained intracellular black-blue formazan deposits. Verification of differentiation to monocytic cells was determined by measuring phagocytic activity (data not shown).

[5] = test system: 24-hdyroxylase (24Ohase) gene promoter; assay: In vitro transcription assay (luciferase reporter) in ROS 17/2.8 (bone) cells; type: cell-based; settings: Ros17/2.8 (bone) cells, relative to 1α,25-dihydroxyvitamin D3; FIG. 5
Method: FIG. 5 is a graph comparing the in vitro transcription activity of RAK with that of 1,25(OH)2D3.
Transcription activity was measured in ROS 17/2.8 (bone) cells that were stably transfected with a 24-hdyroxylase (24Ohase) gene promoter upstream of a luciferase reporter gene (Arbour et al., 1998). Cells were given a range of doses. Sixteen hours after dosing the cells were harvested and luciferase activities were measured using a luminometer. (RLU=relative luciferase units)

[6] = Intestinal calcium transport (everted gut sac method); type: in vivo, Sprague-Dawley rats; settings: rats, ip; at equimolar quantities of the dose of 1α,25-dihydroxyvitamin D3; FIG. 3
Method: FIG. 3 is a bar graph comparing the intestinal calcium transport activity of RAK with that of 1,25(OH)2D3.
(§1) Male, weanling Sprague-Dawley rats were placed on Diet 11 (0.47% Ca) diet+AEK for one week followed by Diet 11 (0.02% Ca)+AEK for 3 weeks. The rats were then switched to a diet containing 0.47% Ca for one week followed by two weeks on a diet containing 0.02% Ca. Dose administration began during the last week on 0.02% calcium diet. Four consecutive ip doses were given approximately 24 hours apart. Twenty-four hours after the last dose, blood was collected from the severed neck and the concentration of serum calcium determined as a measure of bone calcium mobilization. The first 10 cm of the intestine was also collected for intestinal calcium transport analysis using the everted gut sac method.

[7] = Bone calcium mobilization (serum calcium); type: in vivo, Sprague-Dawley rats; settings: rats, ip, FIG. 2
Method: FIG. 2 is a bar graph comparing the bone calcium mobilization activity of RAK with that of 1,25(OH)2D3.
as §1

1α-hydroxy-2-methylene-19-nor-(20S)-homopregnacalciferol
binding activity to vitamin D receptors [1]: relatively high binding activity | calcemic activity [2]: little if any calcemic activity

1α-hydroxy-2-methylene-19-nor-bishomopregnacalciferol
binding activity to vitamin D receptors [1]: relatively high binding activity | calcemic activity [2]: little if any calcemic activity

C[C@H](CCCC(C)(C)O)[C@H]1CC[C@H]2/C(=C/C=C3C[C@@H](O)C[C@H](O)C3)CCC[C@]12C [1α,25-dihydroxy-19-nor-vitamin D3]
calcium mobilizing activity ([2]; in vivo): very low

C=C1[C@H](O)CC(=C/C=C2\CCC[C@]3(C)[C@@H](CC)CC[C@@H]23)C[C@H]1O [1α-hydroxy-2-methylene-19-nor-pregnacalciferol]
binding activity to vitamin D receptors [1]: relatively high binding activity | calcemic activity [2]: little if any calcemic activity

C=C1[C@H](O)CC(=C/C=C2\CCC[C@]3(C)[C@@H]([C@H](C)CCCC(C)O)CC[C@@H]23)C[C@H]1O (stereo partly drawn) [RAK, (20R,25R)-2-Methylene-19,26-dinor-1α,25-dihydroxyvitamin D3]
binding to the recombinant vitamin D receptor [3]: comparable to 1α,25-dihydroxyvitamin D3; also recorded: relatively high binding | inducing differentiation of HL-60 cells [4]: equally active as 1α,25-dihydroxyvitamin D3 | stimulating transcription of a reporter gene [5]: equally active | calcemic activity measured by intestinal calcium transport [6]: limited calcemic activity; also recorded: very low intestinal calcium transport activity | calcemic activity measured by bone calcium mobilization ([7]; at 27 time molar quantity of the dose of 1α,25-dihydroxyvitamin D3): limited calcemic activity | calcemic activity measured by bone calcium mobilization ([7]; at equimolar quantities of the dose of 1α,25-dihydroxyvitamin D3): limited calcemic activity; also recorded: very low ability to mobilize calcium from bone
